Structures are written as SMILES.

This assay addresses T1, sGC α1/β1 heterodimer (Homo sapiens, UniProt Q02108+Q02153).
T1 construct: expressed in transfected cells
T1 sequence (Q02108 1-690): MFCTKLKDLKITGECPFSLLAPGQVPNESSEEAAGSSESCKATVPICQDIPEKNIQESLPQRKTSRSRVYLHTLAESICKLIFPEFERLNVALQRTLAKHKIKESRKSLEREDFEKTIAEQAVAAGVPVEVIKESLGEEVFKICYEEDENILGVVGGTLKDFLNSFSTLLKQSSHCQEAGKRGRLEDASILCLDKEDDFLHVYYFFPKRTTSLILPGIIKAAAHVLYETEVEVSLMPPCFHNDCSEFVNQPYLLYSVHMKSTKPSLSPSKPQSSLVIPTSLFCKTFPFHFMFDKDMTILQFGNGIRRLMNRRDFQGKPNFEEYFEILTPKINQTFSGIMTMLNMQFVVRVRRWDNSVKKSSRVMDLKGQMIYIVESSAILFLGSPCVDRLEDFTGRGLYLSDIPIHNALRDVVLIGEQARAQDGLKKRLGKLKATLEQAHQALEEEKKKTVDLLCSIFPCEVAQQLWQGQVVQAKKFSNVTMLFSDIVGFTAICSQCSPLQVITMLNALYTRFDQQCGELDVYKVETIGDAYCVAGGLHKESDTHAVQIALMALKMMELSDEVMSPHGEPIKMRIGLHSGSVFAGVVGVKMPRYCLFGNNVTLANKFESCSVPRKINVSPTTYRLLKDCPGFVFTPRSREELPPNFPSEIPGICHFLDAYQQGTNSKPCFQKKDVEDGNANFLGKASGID
T1 sequence (Q02153 1-619): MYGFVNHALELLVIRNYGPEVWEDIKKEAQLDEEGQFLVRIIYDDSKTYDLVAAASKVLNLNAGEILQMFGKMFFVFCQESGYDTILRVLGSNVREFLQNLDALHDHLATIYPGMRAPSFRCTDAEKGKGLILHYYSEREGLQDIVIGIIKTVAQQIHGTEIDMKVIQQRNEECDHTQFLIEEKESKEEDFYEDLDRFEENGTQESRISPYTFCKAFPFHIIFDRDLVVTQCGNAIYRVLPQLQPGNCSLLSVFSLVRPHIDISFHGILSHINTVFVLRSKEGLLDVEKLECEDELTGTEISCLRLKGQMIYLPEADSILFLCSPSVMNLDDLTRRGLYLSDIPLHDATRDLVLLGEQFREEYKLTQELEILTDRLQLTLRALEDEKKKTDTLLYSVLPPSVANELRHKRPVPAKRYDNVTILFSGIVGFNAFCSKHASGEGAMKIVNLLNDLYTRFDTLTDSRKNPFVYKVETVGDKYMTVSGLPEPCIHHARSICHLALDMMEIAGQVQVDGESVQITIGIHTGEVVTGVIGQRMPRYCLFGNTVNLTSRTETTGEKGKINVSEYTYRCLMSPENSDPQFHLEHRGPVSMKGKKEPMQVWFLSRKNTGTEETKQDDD
Description: Cell-Based sGC Functional Assay (CASA Assay), cGMP generation in CHO-K1/sGC cells.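 Further: reference Compound A is a published heme-dependent sGC activator.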 The note with it: maximum cGMP production of Compound A set to 100% activation, read-out: % Act. (percent activation relative to Compound A). The essentials:
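CHO-K1 cells stably expressing human sGC α1/β1, 4×10^5/mL in EBSS with 5 mM MgCl2, 10 mM HEPES, 0.05% BSA, 0.5 mM IBMX, 2.5% DMSO; compounds 1 h at 37 °C ± 1 μM DETA-NO. cGMP by HTRF, expressed as % of reference Compound A maximum; IP and max fold induction from 4P fit.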
As for `Nc1nc(-c2cn3ncnc3c(CCC(F)(F)F)n2)nc2c1C(c1ccc(C(F)(F)F)cn1)(C1CC1)C(=O)N2` (stereo not shown) [Example 80A, 4-amino-5-cyclopropyl-5-(5-(trifluoromethyl)pyridin-2-yl)-2-(8-(3,3,3-trifluoropropyl)-[1,2,4]triazolo[1,5-a]pyrazin-6-yl)-5H-pyrrolo[2,3-d]pyrimidin-6(7H)-one], the Emax was found to be 115%.

As for `CC1(c2ccc(F)cn2)C(=O)Nc2nc(-c3cn4ncnc4c(CCC(F)(F)F)n3)nc(N)c21` (stereo not shown) [Example 81B, 4-amino-5-(5-fluoropyridin-2-yl)-5-methyl-2-(8-(3,3,3-trifluoropropyl)-[1,2,4]triazolo[1,5-a]pyrazin-6-yl)-5H-pyrrolo[2,3-d]pyrimidin-6(7H)-one], the Emax came to 115%.

As to `Nc1nc(-c2cn3ncnc3c(CCC(F)(F)F)n2)nc2c1C(c1ccc(Cl)cn1)(C1CC1)C(=O)N2` (stereo not shown) [Example 82A, 4-amino-5-(5-chloropyridin-2-yl)-5-cyclopropyl-2-(8-(3,3,3-trifluoropropyl)-[1,2,4]triazolo[1,5-a]pyrazin-6-yl)-5H-pyrrolo[2,3-d]pyrimidin-6(7H)-one], the Emax was found to be 125%.

On to `Nc1nc(-c2cn3ncnc3c(CCC(F)(F)F)n2)nc2c1C(c1ccc(F)c(F)c1)(C1CC1)C(=O)N2` (stereo not shown) [Example 83A, 4-amino-5-cyclopropyl-5-(3,4-difluorophenyl)-2-(8-(3,3,3-trifluoropropyl)-[1,2,4]triazolo[1,5-a]pyrazin-6-yl)-5H-pyrrolo[2,3-d]pyrimidin-6(7H)-one], for which the Emax was 100%.

For `CC1(c2ccc(F)c(F)c2)C(=O)Nc2nc(-c3cn4ncnc4c(CCC(F)(F)F)n3)nc(N)c21` (stereo not shown) [Example 84B, 4-amino-5-(3,4-difluorophenyl)-5-methyl-2-(8-(3,3,3-trifluoropropyl)-[1,2,4]triazolo[1,5-a]pyrazin-6-yl)-5H-pyrrolo[2,3-d]pyrimidin-6(7H)-one], the Emax is 101%.

Consider `COc1cccc(Cc2nc(-c3nc(N)c4c(n3)NC(=O)[C@@]4(C)c3ccc(F)cc3)cn3ncnc23)c1` [Example 86B, (S)-4-amino-5-(4-fluorophenyl)-2-(8-(3-methoxybenzyl)-[1,2,4]triazolo[1,5-a]pyrazin-6-yl)-5-methyl-5H-pyrrolo[2,3-d]pyrimidin-6(7H)-one], for which the Emax was found to be 126%.

Regarding `Cc1nc2c(Cc3ccc(F)cc3)nc(-c3nc(N)c4c(n3)NC(=O)[C@@]4(C)c3ccc(F)cc3)cn2n1` [Example 87B, (S)-4-amino-2-(8-(4-fluorobenzyl)-2-methyl-[1,2,4]triazolo[1,5-a]pyrazin-6-yl)-5-(4-fluorophenyl)-5-methyl-5H-pyrrolo[2,3-d]pyrimidin-6(7H)-one], the Emax is 138%.

As to `Cc1nc2c(CCC(F)(F)C(F)(F)F)nc(-c3nc(N)c4c(n3)NC(=O)C4(C)c3ccc(F)cn3)cn2n1` (stereo not shown) [Example 89B, 4-amino-5-(5-fluoropyridin-2-yl)-5-methyl-2-(2-methyl-8-(3,3,4,4,4-pentafluorobutyl)-[1,2,4]triazolo[1,5-a]pyrazin-6-yl)-5H-pyrrolo[2,3-d]pyrimidin-6(7H)-one], the Emax was determined as 109%.

For `Cc1nc2c(CCC(F)(F)C(F)(F)F)nc(-c3nc(N)c4c(n3)NC(=O)C4(C)c3ccc(Cl)c(F)c3)cn2n1` (stereo not shown) [Example 90B, 4-amino-5-(4-chloro-3-fluorophenyl)-5-methyl-2-(2-methyl-8-(3,3,4,4,4-pentafluorobutyl)-[1,2,4]triazolo[1,5-a]pyrazin-6-yl)-5H-pyrrolo[2,3-d]pyrimidin-6(7H)-one], the Emax stood at 135%.

In the case of `CCCc1nc(-c2nc(N)c3c(n2)NC(=O)[C@@]3(C)c2ccc(F)cc2)cn2nc(C)nc12` [Example 91A, (S)-4-amino-5-(4-fluorophenyl)-5-methyl-2-(2-methyl-8-propyl-[1,2,4]triazolo[1,5-a]pyrazin-6-yl)-5,7-dihydro-6H-pyrrolo[2,3-d]pyrimidin-6-one], the Emax is 105%.

Turning to `CCCc1nc(-c2nc(N)c3c(n2)NC(=O)C3(C)c2ccc(F)cn2)cn2nc(C)nc12` (stereo not shown) [Example 92B, 4-amino-5-(5-fluoropyridin-2-yl)-5-methyl-2-(2-methyl-8-propyl-[1,2,4]triazolo[1,5-a]pyrazin-6-yl)-5H-pyrrolo[2,3-d]pyrimidin-6(7H)-one], the Emax worked out at 167%.

As to `CCCc1nc(-c2nc(N)c3c(n2)NC(=O)C3(C)c2ccc(Cl)cc2)cn2nc(C)nc12` (stereo not shown) [Example 93A, 4-amino-5-(4-chlorophenyl)-5-methyl-2-(2-methyl-8-propyl-[1,2,4]triazolo[1,5-a]pyrazin-6-yl)-5H-pyrrolo[2,3-d]pyrimidin-6(7H)-one], the Emax was 159%.

As for `Nc1nc(-c2cn3ncnc3c(CCC(F)(F)C(F)(F)F)n2)nc2c1C(c1cn(C3CC3)nn1)(C1CC1)C(=O)N2` (stereo not shown) [Example 96B, 4-amino-5-cyclopropyl-5-(1-cyclopropyl-1H-1,2,3-triazol-4-yl)-2-(8-(3,3,4,4,4-pentafluorobutyl)-[1,2,4]triazolo[1,5-a]pyrazin-6-yl)-5H-pyrrolo[2,3-d]pyrimidin-6(7H)-one], the Emax worked out at 108%.

As for `CC1(c2nnc(C3CC3)o2)C(=O)Nc2nc(-c3cn4ncnc4c(CCCC(F)(F)F)n3)nc(N)c21` (stereo not shown) [Example 99A, 4-amino-5-(5-cyclopropyl-1,3,4-oxadiazol-2-yl)-5-methyl-2-(8-(4,4,4-trifluorobutyl)-[1,2,4]triazolo[1,5-a]pyrazin-6-yl)-5H-pyrrolo[2,3-d]pyrimidin-6(7H)-one], the Emax turned out to be 113%.

Take `CC1(c2nnc(C(F)F)o2)C(=O)Nc2nc(-c3cn4ncnc4c(CCCC(F)(F)F)n3)nc(N)c21` (stereo not shown) [Example 100A, 4-amino-5-(5-(difluoromethyl)-1,3,4-oxadiazol-2-yl)-5-methyl-2-(8-(4,4,4-trifluorobutyl)-[1,2,4]triazolo[1,5-a]pyrazin-6-yl)-5H-pyrrolo[2,3-d]pyrimidin-6(7H)-one]: the Emax worked out at 184%.

For `CC1(c2nnc(C(F)(F)F)o2)C(=O)Nc2nc(-c3cn4ncnc4c(CCCC(F)(F)F)n3)nc(N)c21` (stereo not shown) [Example 101A, 4-amino-5-methyl-2-(8-(4,4,4-trifluorobutyl)-[1,2,4]triazolo[1,5-a]pyrazin-6-yl)-5-(5-(trifluoromethyl)-1,3,4-oxadiazol-2-yl)-5H-pyrrolo[2,3-d]pyrimidin-6(7H)-one], the Emax worked out at 154%.

With `CCCCc1nc(-c2nc(N)c3c(n2)NC(=O)C3(C)c2nnc(C(F)(F)F)o2)cn2ncnc12` (stereo not shown) [Example 102A, 4-amino-2-(8-butyl-[1,2,4]triazolo[1,5-a]pyrazin-6-yl)-5-methyl-5-(5-(trifluoromethyl)-1,3,4-oxadiazol-2-yl)-5H-pyrrolo[2,3-d]pyrimidin-6(7H)-one], the Emax was 132%.

Turning to `Nc1nc(-c2cn3ncnc3c(CCCC(F)(F)F)n2)nc2c1C(c1nnc(C3(F)CC3)o1)(C1CC1)C(=O)N2` (stereo not shown) [Example 108A, 4-amino-5-cyclopropyl-5-(5-(1-fluorocyclopropyl)-1,3,4-oxadiazol-2-yl)-2-(8-(4,4,4-trifluorobutyl)-[1,2,4]triazolo[1,5-a]pyrazin-6-yl)-5H-pyrrolo[2,3-d]pyrimidin-6(7H)-one], the Emax turned out to be 107%.

For the molecule `CC1(c2nnc(C3(F)CC3)o2)C(=O)Nc2nc(-c3cn4ncnc4c(CCCC(F)(F)F)n3)nc(N)c21` (stereo not shown) [Example 109A, 4-amino-5-(5-(1-fluorocyclopropyl)-1,3,4-oxadiazol-2-yl)-5-methyl-2-(8-(4,4,4-trifluorobutyl)-[1,2,4]triazolo[1,5-a]pyrazin-6-yl)-5H-pyrrolo[2,3-d]pyrimidin-6(7H)-one], the Emax is 92%.

(Values after US10925876B2, “Methods for using triazolo-pyrazinyl soluble guanylate cyclase activators in fibrotic disorders” (Merck Sharp & Dohme Corp., priority 2016, dated 2021).)
